Laboratory results from patent EP1891105B1, “OXYNTOMODULIN ANALOGUES AND THEIR EFFECTS ON FEEDING BEHAVIOUR” (Imperial Innovations Limited, priority 2005, dated 2012).
Entries after “also recorded” stand apart in the source; their conditions may differ. Non-standard residues stand in square brackets, D forms with d. No end group written: not given here. *: point of attachment. Lauroyl = CCCCCCCCCCCC(=O)*

What was measured:
[1] = Food intake of fasted mice after injection of peptide; type: in vivo, C57BL/6 mice
Procedure: Animals: All animal procedures were approved by the British Home Office Animals (Scientific Procedures) Act 1986 (Project License number 70/5516). Male C57BL/6 mice and male Wistar rats were maintained in individual cages under controlled temperature (21-23 °C) with ad libitum access to standard chow (RM1 diet, SDS Ltd, Witham, Essex, UK) and to water. The light cycle was 14 hours light and 10 hours dark with 'dawn' at 07:00, lights full on at 07:30, 'dusk' at 21:00 with lights off at 21:30. These times were fixed in the animal facility.
All animals were handled almost daily for on average nine days prior to the first study. During the acclimatization period, each animal received two saline injections at least two days apart in order to further acclimatize to the procedure on the study days.
Intra-peritoneal (IP) injections: IP injections were administered to mice via a 0.5 ml syringe with a 29-gauge needle (maximum injection volume 0.1 ml). Maximum volume administered IP was 0.1 ml.
Study protocol: C57BL/6 mice (20-35 g) were injected with the peptide under investigation following a 20-hour fast Wistar rats were injected following a 24-hour fast. A pre-weighed quantity of chow was presented immediately after injection. The remaining food was measured at regular time intervals (e.g. 1, 2, 3,4, 6, 8, 24 and 48 hours following injection) and food intake calculated.

[2] = humans; intravenously infused; cited from earlier work
[3] = humans; 1.8 mg sc three times daily for 28 days; cited from earlier work
[4] = rats, cited from earlier work
[5] = Example 1, 2700 nmol/kg, intervals 0-32 h after injection, vs saline and oxm

Molecule: D-His1,Ala2,Lys33,Ala38,Ala39,Lys40-lauroyl-oxm(ex15-23)(ex27-33) ([dH]AQGTFTSDYSKYLEEEAVRLFIQWLKNGGPSKNNIAAAK(Lauroyl))
- food intake ([1]; Example 54, 10 nmol/kg): exception

Molecule: DHis2-Ser2-Asp3-oxm(ex15-23)(ex27-33)-Lys33-Ala38,39-Glu40,41-Lys42-Lauroyl ([dH]SDGTFTSDYSKYLEEEAVRLFIQWLKNGGPSKNNIAAAEEK(Lauroyl)) [23/104]
- food intake ([1]; Example 57, 6 or 20 nmol/kg): markedly decreased cumulative food intake in comparison to the saline control

Molecule: Oxyntomodulin (HSQGTFTSDYSKYLDSRRAQDFVQWLMNTKRNRNNIA) [oxm, 37 amino acid peptide member of the glucagon superfamily]
- food intake ([1]; Example 5, 2700nmol/kg, 0-4 h, vs oxm and saline): reduced food intake as expected
- food intake ([1]; Example 7, 1000 nmol/kg, 0-24 h): did not quite reach statistical significance
- Multiples of food inhibition Factor ([1]; Example 9, food intake during the first hour after injection, activity relative to oxm (1400 nmol/kg)): 1
- appetite [2]: effective appetite suppressant
- body weight [3]: significant reduction of body weight
- weight gain ([4]; chronic central administration): reduced weight gain
- refeeding after a fast ([4]; intracerebroventricular and injection into paraventricular and arcuate nuclei): inhibits refeeding after a fast
- body weight gain and adiposity ([4]; twice daily peripheral injections): reduced body weight gain and adiposity

Molecule: oxm(xx15-18): human oxm with 4 amino acids at positions 15-18 replaced by substitute sequence (HSQGTFTSDYSKYLEEEAAQDFVQWLMNTKRNRNNIA)
- food intake [1, 5]: increased and prolonged inhibition of food intake compared to both saline and oxm

Molecule: oxm(xx15-21): human oxm with residues 15-21 replaced by corresponding exendin-4 residues (HSQGTFTSDYSKYLEEEAVRLFVQWLMNTKRNRNNIA)
- food intake [1, 5]: greater and more prolonged appetite suppressant effect

B1: oxm(xx27-33): oxm with residues 27 to 33 replaced by the sequence Lys Asn Gly Gly Pro Ser Ser (peptide)
chain 1: HSQGTFTSDYSKYLDSRRAQDFVQWLKNGGPSSNNIA
chain 2: B1 chain 1
- food intake ([1]; Example 3, 2700 nmol/kg, 0-24 h, vs oxm and saline): increased and prolonged inhibition of food intake compared to both saline and oxm

B2: oxm(xx15-24): human oxm with residues 15-24 replaced by corresponding exendin-4 residues (peptide)
chain 1: HSQGTFTSDYSKYLEEEAVRLFIEWLMNTKRNRNNIA
chain 2: B2 chain 1
- food intake [1, 5]: greater and more prolonged appetite suppressant effect; also recorded: more potent effect on feeding than oxm
- food intake ([1]; Example 2, 300 nmol/kg, 0-24 h, vs exendin 4 and saline): reduces food intake only slightly less than exendin over the first 8 hours post-injection
- food intake ([1]; Example 27, 100 nmol/kg): the most effective
